Measurements as given in PMC11079024, “Identification of a family of species-selective complex I inhibitors as potential anthelmintics” (Nature Communications, 2024).
Where two headings read alike, the source gives them in different places.

What was measured:
C. briggsae complex I = C. briggsae complex I (Caenorhabditis briggsae, UniProt A8X476+A8XFG2+Q8HEC4); assay: In vitro complex I activity assay, C. briggsae mitochondria; type: biochemical
Description: (§1) Mitochondria were isolated from the following free-living nematode strains: C. elegans—N2, CB3474, ECA882, ECA917, ECA1075, ECA1080; C. briggsae—AF16; P. pacificus—PS312; and P. hermaphrodita—B178. With the exception of the P. hermaphrodita strain B178, adult worms of each strain were grown in bulk through liquid culture to obtain mitochondria in sufficient quantities. Due to poor growth in liquid media, mixed stage populations of P. hermaphrodita were washed off and collected from NGM plates seeded with OP50. The isolation of mitochondria from all free-living nematode strains followed the protocol previously outlined in Burns et al.[24]. In brief, a 1 L saturated culture of E. coli HB101 was concentrated 20-fold in 50 mL complete S-medium. ~500,000 L1 worms synchronized from an embryo preparation performed the day prior were added to the S-media/HB101 suspension and grown to adulthood over the course of 3.5 days at 20 °C with shaking at 165 rpm. Following growth, worms were collected in 10 ×15 mL conical tubes and washed 7 times in M9 buffer. Worm suspensions were then combined into a single 15 mL conical tube and diluted to a final volume of 15 mL with M9 buffer. 1 mL aliquots of worm suspension were then distributed to 15 × 1.5 mL screw-cap microcentrifuge tubes and were pelleted at 500 g for 1 min. Excess M9 was aspirated without disturbing the worm pellet. 600 μL ice-cold isolate buffer A (250 mM sucrose, 10 mM Tris (pH 7.5), 1 mM EDTA, 1 mM PMSF (freshly prepared)) and 300 μL cold glass beads were then added to each tube. Tubes were incubated on ice for 10 min, and the worms were then lysed by bead beating (6 x 30 s, with 1 min cooling intervals). Tubes containing worm lysate were centrifuged at 1,000 g for 10 min at 4 °C and the supernatant was transferred to 15 new microcentrifuge tubes on ice. The tubes were centrifuged a second time at 1,000 g for 10 min at 4 °C and the supernatant was once again transferred to 15 new microcentrifuge tubes on ice. These tubes were then centrifuged at 16,000 g for 10 min at 4 °C. The resulting mitochondrial pellet was washed twice by re-suspension in 300 μL of ice-cold isolate buffer B (250 mM sucrose, 10 mM Tris (pH 7.5), 1 mM EDTA). Following the final wash, isolation buffer was aspirated from each tube and the pellets were flash-frozen in ethanol/dry ice and stored at −80 °C until needed.
(§2) The enzymatic activities of individual ETC complexes (I-IV) were assessed spectrophotometrically in isolated mitochondria using a Varioskan LUX Multimode plate reader (ThermoFisher Scientific). Mitochondrial pellets previously isolated were thawed on ice and resuspended in ice-cold isolation buffer (250 mM sucrose, 10 mM Tris (pH 7.5), 1 mM EDTA). The BCA assay (Walker, 1994) was used to quantify the protein concentration of mitochondria suspensions; solutions were diluted to a concentration of 0.2 mg/mL for use in all assays. For the complex I assay, mitochondria pellets were freeze-thawed on ice three times to increase enzyme accessibility. […] 20 μL mitochondria suspension was then added/mixed with a pipette to initiate the reaction. Immediately following the addition of mitochondria, absorbance was measured (complex I and II: 600 nm; complex III and IV: 550 nm) in 30 s intervals over 15 min. Enzymatic activity was determined in each reaction by plotting absorbance versus time and calculating the slope of the curve during the initial linear phase of the reaction. […] Percent activity of each complex was calculated by dividing the enzyme-specific activity of each well by the enzyme-specific activity of the corresponding solvent controls.
Chemical solutions were prepared in complex I assay buffer composed of 25 mM KPi buffer (pH 7.5), 3 mg/mL bovine serum albumin (BSA), 80 μM NADH, 60 μM decylubiquinone, 160 μM DCIP, 2 μM antimycin A and 2 mM KCN.
For preliminary screens of hit compounds, compounds were screened at 100 μM; data are the average of at least three biological replicates.

P. pacificus complex I = P. pacificus complex I (Pristionchus pacificus, UniProt A0A454XZ18+A0A8R1Z3U8+A4UAP3); assay: In vitro complex I activity assay, P. pacificus mitochondria; type: biochemical
Description: as §1, §2
Chemical solutions were prepared in complex I assay buffer composed of 25 mM KPi buffer (pH 7.5), 3 mg/mL bovine serum albumin (BSA), 80 μM NADH, 60 μM decylubiquinone, 160 μM DCIP, 2 μM antimycin A and 2 mM KCN. […]

[1] = C. briggsae mitochondria, Mean of replicates, read-out: in vitro complex I activity relative to solvent control
[2] = C. briggsae mitochondria, single replicate, read-out: in vitro complex I activity relative to solvent control
[3] = C. briggsae mitochondria, Mean, read-out: in vitro complex I activity relative to solvent control
[4] = P. pacificus mitochondria, Mean of replicates, read-out: in vitro complex I activity relative to solvent control
[5] = P. pacificus mitochondria, Mean, read-out: in vitro complex I activity relative to solvent control
[6] = P. pacificus mitochondria, single replicate, read-out: in vitro complex I activity relative to solvent control

C. briggsae complex I, sequence (A8X476 31-482): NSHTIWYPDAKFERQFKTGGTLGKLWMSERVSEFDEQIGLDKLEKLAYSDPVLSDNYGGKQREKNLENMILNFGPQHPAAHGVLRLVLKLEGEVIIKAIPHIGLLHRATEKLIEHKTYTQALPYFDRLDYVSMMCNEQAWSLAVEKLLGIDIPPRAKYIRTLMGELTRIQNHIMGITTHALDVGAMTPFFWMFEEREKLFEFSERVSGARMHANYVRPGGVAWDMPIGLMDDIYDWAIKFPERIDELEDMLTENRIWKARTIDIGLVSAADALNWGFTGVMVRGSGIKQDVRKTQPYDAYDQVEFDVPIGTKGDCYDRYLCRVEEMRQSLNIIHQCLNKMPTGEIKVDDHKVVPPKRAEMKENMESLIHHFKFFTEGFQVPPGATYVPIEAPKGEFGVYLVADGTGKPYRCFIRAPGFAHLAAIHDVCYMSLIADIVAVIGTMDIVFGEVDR
C. briggsae complex I, sequence (A8XFG2 17-199): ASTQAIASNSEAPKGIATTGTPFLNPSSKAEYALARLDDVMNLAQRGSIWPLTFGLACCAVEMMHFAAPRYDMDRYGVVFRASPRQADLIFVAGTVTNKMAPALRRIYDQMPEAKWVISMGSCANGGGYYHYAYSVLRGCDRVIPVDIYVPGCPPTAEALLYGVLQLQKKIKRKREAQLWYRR
C. briggsae complex I, sequence (Q8HEC4 whole entry): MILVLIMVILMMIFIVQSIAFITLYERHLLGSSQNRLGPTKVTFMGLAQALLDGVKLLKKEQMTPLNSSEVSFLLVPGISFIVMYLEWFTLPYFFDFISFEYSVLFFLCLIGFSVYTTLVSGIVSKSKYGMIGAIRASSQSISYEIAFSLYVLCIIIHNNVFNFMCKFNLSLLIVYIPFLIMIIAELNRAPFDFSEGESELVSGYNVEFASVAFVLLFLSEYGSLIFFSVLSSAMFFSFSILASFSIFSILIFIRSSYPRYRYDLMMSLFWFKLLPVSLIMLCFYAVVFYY

CC(C)Cc1ccc(C(C)c2nc3ccccc3n2C)cc1 (stereo not drawn) [NPD8790]
remaining activity at 0.06 µM (C. briggsae complex I; [1]): 103%
remaining activity at 0.06 µM (C. briggsae complex I; [2]): 95.7%
remaining activity at 0.13 µM (C. briggsae complex I; [1]): 92%
remaining activity at 0.13 µM (C. briggsae complex I; [2]): 86.2%
remaining activity at 0.313 µM (C. briggsae complex I; [1]): 85.6%
remaining activity at 0.313 µM (C. briggsae complex I; [2]): 76.1%
remaining activity at 0.625 µM (C. briggsae complex I; [1]): 74.2%
remaining activity at 0.625 µM (C. briggsae complex I; [2]): 81.9%
remaining activity at 1.5 µM (C. briggsae complex I; [1]): 61.1%
remaining activity at 1.5 µM (C. briggsae complex I; [2]): 70%
remaining activity at 3 µM (C. briggsae complex I; [1]): 43.1%
remaining activity at 3 µM (C. briggsae complex I; [2]): 52.6%
remaining activity at 15 µM (C. briggsae complex I; [1]): 16%
remaining activity at 37.5 µM (C. briggsae complex I; [1]): 11.7%
remaining activity at 75 µM (C. briggsae complex I; [1]): 9.21%
remaining activity at 0.0001 µM (C. briggsae complex I; [3]): 91.5%
remaining activity at 0.0001 µM (C. briggsae complex I; [2]): 87.3%
remaining activity at 0.0005 µM (C. briggsae complex I; [3]): 96.4%
remaining activity at 0.0005 µM (C. briggsae complex I; [2]): 99.9%
remaining activity at 0.001 µM (C. briggsae complex I; [3]): 102%
remaining activity at 0.001 µM (C. briggsae complex I; [2]): 99.6%
remaining activity at 0.0025 µM (C. briggsae complex I; [3]): 115%
remaining activity at 0.0025 µM (C. briggsae complex I; [2]): 108%
remaining activity at 0.005 µM (C. briggsae complex I; C. briggsae mitochondria, 0.005 µM, Mean, read-out: in vitro complex I activity relative to solvent control): 119%
remaining activity at 0.025 µM (C. briggsae complex I; C. briggsae mitochondria, 0.025 µM, Mean, read-out: in vitro complex I activity relative to solvent control): 109%
remaining activity at 0.063 µM (C. briggsae complex I; [3]): 103%
remaining activity at 0.063 µM (C. briggsae complex I; [2]): 95.7%
remaining activity at 0.125 µM (C. briggsae complex I; [3]): 92%
remaining activity at 0.125 µM (C. briggsae complex I; [2]): 86.2%
remaining activity at 0.313 µM (C. briggsae complex I; [3]): 85.6%
remaining activity at 0.625 µM (C. briggsae complex I; [3]): 74.2%
remaining activity at 1.5 µM (C. briggsae complex I; [3]): 61.1%
remaining activity at 3 µM (C. briggsae complex I; [3]): 43.1%
remaining activity at 15 µM (C. briggsae complex I; [3]): 16%
remaining activity at 37.5 µM (C. briggsae complex I; [3]): 11.7%
remaining activity at 75 µM (C. briggsae complex I; [3]): 9.21%
IC50 (C. briggsae complex I; purified mitochondria): 1.6 µM
remaining activity at 0.06 µM (P. pacificus complex I; P. pacificus mitochondria, 0.06 µM, Mean of replicates, read-out: in vitro complex I activity relative to solvent control): 105%
remaining activity at 0.13 µM (P. pacificus complex I; P. pacificus mitochondria, 0.13 µM, Mean of replicates, read-out: in vitro complex I activity relative to solvent control): 88%
remaining activity at 0.313 µM (P. pacificus complex I; [4]): 82%
remaining activity at 0.625 µM (P. pacificus complex I; [4]): 75.5%
remaining activity at 1.5 µM (P. pacificus complex I; [4]): 68.1%
remaining activity at 3 µM (P. pacificus complex I; [4]): 49.1%
remaining activity at 15 µM (P. pacificus complex I; [4]): 21.4%
remaining activity at 37.5 µM (P. pacificus complex I; [4]): 16.3%
remaining activity at 75 µM (P. pacificus complex I; [4]): 11.3%
remaining activity at 0.0001 µM (P. pacificus complex I; [5]): 85.3%
remaining activity at 0.0001 µM (P. pacificus complex I; [6]): 79.8%
remaining activity at 0.0005 µM (P. pacificus complex I; [5]): 88.9%
remaining activity at 0.0005 µM (P. pacificus complex I; [6]): 82.3%
remaining activity at 0.001 µM (P. pacificus complex I; P. pacificus mitochondria, 0.001 µM, Mean, read-out: in vitro complex I activity relative to solvent control): 112%
remaining activity at 0.0025 µM (P. pacificus complex I; P. pacificus mitochondria, 0.0025 µM, Mean, read-out: in vitro complex I activity relative to solvent control): 110%
remaining activity at 0.005 µM (P. pacificus complex I; P. pacificus mitochondria, 0.005 µM, Mean, read-out: in vitro complex I activity relative to solvent control): 117%
remaining activity at 0.013 µM (P. pacificus complex I; P. pacificus mitochondria, 0.013 µM, Mean, read-out: in vitro complex I activity relative to solvent control): 105%
remaining activity at 0.025 µM (P. pacificus complex I; P. pacificus mitochondria, 0.025 µM, Mean, read-out: in vitro complex I activity relative to solvent control): 107%
remaining activity at 0.063 µM (P. pacificus complex I; P. pacificus mitochondria, 0.063 µM, Mean, read-out: in vitro complex I activity relative to solvent control): 105%
remaining activity at 0.125 µM (P. pacificus complex I; P. pacificus mitochondria, 0.125 µM, Mean, read-out: in vitro complex I activity relative to solvent control): 88%
remaining activity at 0.313 µM (P. pacificus complex I; [5]): 82%
remaining activity at 0.313 µM (P. pacificus complex I; [6]): 71.1%
remaining activity at 0.625 µM (P. pacificus complex I; [5]): 75.5%
remaining activity at 1.5 µM (P. pacificus complex I; [5]): 68.1%
remaining activity at 3 µM (P. pacificus complex I; [5]): 49.1%
remaining activity at 15 µM (P. pacificus complex I; [5]): 21.4%
remaining activity at 37.5 µM (P. pacificus complex I; [5]): 16.3%
remaining activity at 75 µM (P. pacificus complex I; [5]): 11.3%
IC50 (P. pacificus complex I; purified mitochondria): 2.1 µM
